In patent publication EP4603105A1, “PHARMACEUTICAL COMPOSITION CONTAINING CYCLIC COMPOUND HAVING SELECTIVE KRAS INHIBITORY EFFECT AGAINST HRAS AND NRAS” (CHUGAI SEIYAKU KABUSHIKI KAISHA, priority 2022, dated 2024):
Read-outs that look alike come from different tables or passages of the source.

Experiments:
[1] = tested on: human lung cancer strain NCI-H441; assay: NCI-H441 cell proliferation inhibitory activity (CellTiter-Glo, 4 days); assay type: cell-based; conditions: read-out: NCl-H441 IC50
Summary of the method: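 Step one: dispense the test compound in serial DMSO dilutions. Step three: add the reagent and measure […].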

[2] = biological target: GDP-bound NRAS wild-type protein (Homo sapiens, UniProt P01111); assay: Binding to NRAS by surface plasmon resonance (SPR), KD and KD ratio to KRAS
Sequence of GDP-bound NRAS wild-type protein (P01111 whole entry): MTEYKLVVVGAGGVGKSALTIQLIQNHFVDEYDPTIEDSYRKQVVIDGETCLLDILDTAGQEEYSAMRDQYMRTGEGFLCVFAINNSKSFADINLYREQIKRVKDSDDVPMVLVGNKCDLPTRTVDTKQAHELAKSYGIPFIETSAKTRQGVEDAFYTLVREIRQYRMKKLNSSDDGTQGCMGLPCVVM
Summary of the method: (§1)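 Running buffer contained 10 µM GDP and 10 mM MgCl2 to keep RAS in the GDP state, with 4% DMSO at pH 7.4. Compounds were flowed at 100 µL/min in 75 s steps of rising concentration over captured biotin-Avi RAS at 30°C. Sensorgrams were fitted 1:1 for KD.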

[3] = biological target: GDP-bound KRAS wild-type protein (Homo sapiens, UniProt P01116); assay: Binding to KRAS by surface plasmon resonance (SPR), dissociation constant KD
Sequence of GDP-bound KRAS wild-type protein (P01116 1-188 isoform P01116-2): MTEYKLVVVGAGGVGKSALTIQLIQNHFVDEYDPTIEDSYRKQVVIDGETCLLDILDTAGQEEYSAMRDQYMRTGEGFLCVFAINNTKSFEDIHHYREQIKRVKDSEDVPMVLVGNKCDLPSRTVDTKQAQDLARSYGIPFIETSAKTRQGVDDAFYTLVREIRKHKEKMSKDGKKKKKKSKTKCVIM
Summary of the method: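 Measured at 30°C: SPR with GDP-loaded, E. coli-expressed biotin-Avi RAS captured (~100–300 RU), ascending 75 s compound injections, HBS pH 7.4 with GDP, MgCl2, 4% DMSO. KD from 1:1 fit.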

HRAS wild-type protein = HRAS wild-type protein (Homo sapiens, UniProt P01112); assay: Binding to HRAS by surface plasmon resonance (SPR), KD and KD ratio to KRAS
Sequence of HRAS wild-type protein (P01112 whole entry): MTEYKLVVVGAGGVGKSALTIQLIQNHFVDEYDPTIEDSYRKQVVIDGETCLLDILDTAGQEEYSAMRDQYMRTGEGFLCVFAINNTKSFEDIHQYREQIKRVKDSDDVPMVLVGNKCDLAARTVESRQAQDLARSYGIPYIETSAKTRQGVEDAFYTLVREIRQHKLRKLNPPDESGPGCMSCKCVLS
Summary of the method: as §1

[4] = ratio of KD for GDP-bound NRAS wild-type protein to KD for KRAS
[5] = ratio of KD for HRAS wild-type protein to KD for KRAS
[6] = 50% proliferation inhibitory concentration, four days
[7] = ratio of KD with respect to GDP-bound NRAS wild-type protein to KD with respect to KRAS
[8] = Single Cycle Kinetics, 1:1 binding model
[9] = ratio of KD with respect to HRAS wild-type protein to KD with respect to KRAS

Row | Structure (SMILES) | IC50 ([1]; NCI-H441 cells, 4 days) [nM] | NRAS /KRAS [2, 4] | Kd ([3]; Single Cycle Kinetics) [nM] | HRAS /KRAS (HRAS wild-type protein; [5]) | Kd ([3]; 1:1 binding model) [nM] | IC50 [1, 6] [nM] | NRAS /KRAS [2, 7] | Kd [3, 8] [nM] | HRAS /KRAS (HRAS wild-type protein; [9])
1 | CCC[C@H]1C(=O)N[C@@H]([C@@H](C)CC)C(=O)N(C)CC(=O)N(C)[C@H]2C/C=C\CCN(C2=O)[C@@H](Cc2ccc(C(F)(F)F)cc2)C(=O)N(C)CC(=O)N[C@@H](CCc2ccc(C(F)(F)F)c(Cl)c2)C(=O)N2CC3(CC3)C[C@H]2C(=O)N(C)C2(CCC2)C(=O)N(C)[C@@H]([C@@H](C)CC)C(=O)N(C)[C@H](C(=O)N(C)C)CC(=O)N1C [PP3299] | 8.1 | A (a compound having 10 or more and less than 20 is denoted as A) | 0.11 | A (a compound having 10 or more and less than 20 is denoted as A) | – | – | – | – | –
2 | CCOC[C@H]1C(=O)N[C@@H]([C@@H](C)CC)C(=O)N(C)CC(=O)N(C)[C@H]2C/C=C\CCN(C2=O)[C@@H](Cc2ccc(C(F)(F)F)cc2)C(=O)N(C)CC(=O)N[C@@H](CCc2cc(F)c(C(F)(F)F)c(F)c2)C(=O)N2C[C@H](OCC)C[C@H]2C(=O)NC2(CC(C)(C)C2)C(=O)N(C)[C@@H](CC2CCC2)C(=O)N(C)[C@H](C(=O)N(C)C)CC(=O)N1C [PP2763] | 71.9 | A (a compound having 10 or more and less than 20 is denoted as A) | – | A (a compound having 10 or more and less than 20 is denoted as A) | 0.86 | – | – | – | –
3 | CCC[C@H]1C(=O)N[C@@H]([C@@H](C)CC)C(=O)N(C)CC(=O)N(C)[C@H]2C/C=C\CCN(C2=O)[C@@H](Cc2ccc(C)cc2)C(=O)N(C)CC(=O)N[C@@H](CCc2ccc(C(F)(F)F)c(OC)c2)C(=O)N2CC3(CC3)C[C@H]2C(=O)N(C)C2(CCC2)C(=O)N(C)[C@@H](CC(C)(C)C)C(=O)N(C)[C@H](C(=O)N(C)C)CC(=O)N1C [PP3296] | 1.4 | B (a compound having 3 or more and less than 10 is denoted as B) | 0.079 | C (A compound having a KD ratio of 0.1 or more and less than 3 is denoted as C) | – | – | – | – | –
4 | CCOC[C@H]1C(=O)N[C@@H]([C@@H](C)CC)C(=O)N(C)CC(=O)N(C)[C@H]2C/C=C\CCN(C2=O)[C@@H](Cc2ccc(C)cc2)C(=O)N(C)CC(=O)N[C@@H](CCc2ccc(C(F)(F)F)c(OC)c2)C(=O)N2C[C@@H](C)C[C@H]2C(=O)NC2(CC(C)(C)C2)C(=O)N(C)[C@@H](C2CCCC2)C(=O)N(C)[C@H](C(=O)N(CC)CC)CC(=O)N1C [PP2405] | 8.6 | A (a compound having 10 or more and less than 20 is denoted as A) | – | A (a compound having 10 or more and less than 20 is denoted as A) | 0.31 | – | – | – | –
5 | CCC[C@H]1C(=O)N[C@@H]([C@@H](C)CC)C(=O)N(C)CC(=O)N(C)[C@H]2C/C=C\CCN(C2=O)[C@@H](CC2CCC(F)(F)CC2)C(=O)N(C)CC(=O)N[C@@H](CCc2ccc(C(F)(F)F)c(OC)c2)C(=O)N2C[C@@H](C)C[C@H]2C(=O)NC2(CC(C)(C)C2)C(=O)N(C)[C@@H](C(CC)CC)C(=O)N(C)[C@H](C(=O)N(C)C)CC(=O)N1C [PP2497] | 84.8 | A (a compound having 10 or more and less than 20 is denoted as A) | – | A (a compound having 10 or more and less than 20 is denoted as A) | 1.5 | – | – | – | –
6 | CC[C@H](C)[C@@H]1NC(=O)[C@H](CC(C)C)N(C)C(=O)C[C@@H](C(=O)N(C)C)N(C)C(=O)[C@H](C2CCCC2)N(C)C(=O)C2(CCCC2)NC(=O)[C@@H]2CCN2C(=O)[C@H](CCc2cc(F)c(C(F)(F)F)c(F)c2)NC(=O)CN(C)C(=O)[C@H](Cc2ccc(C)cc2)N2CC/C=C(/F)C[C@@H](C2=O)N(C)C(=O)CN(C)C1=O [PP3522] | 48.7 | B (a compound having 3 or more and less than 10 is denoted as B) | 2.6 | B (a compound having 3 or more and less than 10 is denoted as B) | – | – | – | – | –
7 | CCC(CC)[C@H]1C(=O)N(C)[C@H](C(=O)N(C)C)CC(=O)N(C)[C@@H](CC2CC2)C(=O)N[C@@H]([C@@H](C)CC)C(=O)N(C)CC(=O)N(C)[C@H]2C/C=C\CCN(C2=O)[C@@H](CC2CCC(F)(F)CC2)C(=O)N(C)CC(=O)N[C@@H](CCc2cc(F)c(C(F)(F)F)c(F)c2)C(=O)N2C[C@@H](C)C[C@H]2C(=O)NC2(CC(C)(C)C2)C(=O)N1C [PP2500] | 125 | A (a compound having 10 or more and less than 20 is denoted as A) | – | A (a compound having 10 or more and less than 20 is denoted as A) | 1.7 | – | – | – | –
8 | CCCOC[C@H]1C(=O)N[C@@H]([C@@H](C)OCCC)C(=O)N(CCC)CC(=O)N(C)[C@H]2C/C=C\CCN(C2=O)[C@@H](Cc2ccc(C(F)F)cc2)C(=O)N(C)CC(=O)N[C@@H](CCc2cc(F)c(C(F)(F)F)c(F)c2)C(=O)N2C[C@H](OC(C)C)C[C@H]2C(=O)N(C)C2(CCC2)C(=O)N(C)[C@@H](C(CC)CC)C(=O)N(C)[C@H](C(=O)N(C)C)CC(=O)N1C [PP3488] | 30.7 | A (a compound having 10 or more and less than 20 is denoted as A) | 0.71 | A (a compound having 10 or more and less than 20 is denoted as A) | – | – | – | – | –
9 | CCOC[C@H]1C(=O)N[C@@H]([C@@H](C)CC)C(=O)N(C)CC(=O)N(C)[C@H]2C/C=C\CCN(C2=O)[C@@H](Cc2ccc(C(F)(F)F)cc2)C(=O)N(C)CC(=O)N[C@@H](CCc2cc(F)c(C(F)(F)F)c(F)c2)C(=O)N2C[C@H](OCC)C[C@H]2C(=O)NC2(CCC2)C(=O)N(C)[C@@H](C2CCCC2)C(=O)N(C)[C@H](C(=O)N(C)C)CC(=O)N1C [PP1266] | – | – | – | – | – | 12.2 | A (a compound having 10 or more and less than 20 is denoted as A) | 0.045 | A (a compound having 10 or more and less than 20 is denoted as A)
10 | CCC(CC)[C@H]1C(=O)N(C)[C@H](C(=O)N(C)C)CC(=O)N(C)[C@@H](COC)C(=O)N[C@@H]([C@@H](C)CC)C(=O)N(C2CC2)CC(=O)N(C)[C@H]2C/C=C\CCN(C2=O)[C@@H](CC2CCC(F)(F)CC2)C(=O)N(C)CC(=O)N[C@@H](CCc2cc(F)c(C(F)(F)F)c(F)c2)C(=O)N2C[C@H](OC3CCC3)C[C@H]2C(=O)NC2(CC(C)(C)C2)C(=O)N1C [PP2615] | 88.7 | A (a compound having 10 or more and less than 20 is denoted as A) | – | A (a compound having 10 or more and less than 20 is denoted as A) | 2 | – | – | – | –
11 | CCO[C@@H]1C[C@H]2C(=O)NC3(CCCC3)C(=O)N(C)[C@@H](C3CCCC3)C(=O)N(C)[C@H](C(=O)N(C)C)CC(=O)N(C)[C@@H](CC(C)C)C(=O)N[C@@H]([C@@H](C)CC)C(=O)N(C)CC(=O)N(C)[C@H]3C/C=C\CCN(C3=O)[C@@H](CC3CCCCC3)C(=O)N(C)CC(=O)N[C@@H](CCc3cc(F)c(C(F)(F)F)c(F)c3)C(=O)N2C1 [PP1473] | – | – | – | – | – | 36.6 | A (a compound having 10 or more and less than 20 is denoted as A) | 0.19 | A (a compound having 10 or more and less than 20 is denoted as A)
12 | CCO[C@@H]1C[C@H]2C(=O)NC3(CCC3)C(=O)N(C)[C@@H](C3CCCC3)C(=O)N(C)[C@H](C(=O)N3CCOCC3)CC(=O)N(C)[C@@H](CC)C(=O)N[C@@H]([C@@H](C)CC)C(=O)N(C)CC(=O)N(C)[C@H]3C[C@@H](C)[C@@H](C)CN(C3=O)[C@@H](Cc3ccc(C(F)(F)F)cc3)C(=O)N(C)CC(=O)N[C@@H](CCc3cc(F)c(C(F)(F)F)c(F)c3)C(=O)N2C1 [PP1354] | – | – | – | – | – | 3.6 | A (a compound having 10 or more and less than 20 is denoted as A) | 0.056 | B (a compound having 3 or more and less than 10 is denoted as B)
13 | CCO[C@@H]1C[C@H]2C(=O)NC3(CCC3)C(=O)N(C)[C@@H](C(CC)CC)C(=O)N(C)[C@H](C(=O)N(C)C)CC(=O)N(C)[C@@H](CC(C)C)C(=O)N[C@@H]([C@@H](C)CC)C(=O)N(C)CC(=O)N(C)[C@H]3C/C=C\CCN(C3=O)[C@@H](Cc3ccc(C(F)(F)F)cc3)C(=O)N(C)CC(=O)N[C@@H](CCc3ccc(Cl)c(Cl)c3)C(=O)N2C1 [PP1217] | – | – | – | – | – | 17.8 | AA (a compound having 20 or more is denoted as AA) | 0.48 | A (a compound having 10 or more and less than 20 is denoted as A)
14 | CCO[C@@H]1C[C@H]2C(=O)NC3(CCC3)C(=O)N(C)[C@@H](C3CCCC3)C(=O)N(C)[C@H](C(=O)N(C)C)CC(=O)N(C)[C@@H](Cc3ccc(C#N)cc3)C(=O)N[C@@H]([C@@H](C)CC)C(=O)N(C)CC(=O)N(C)[C@H]3CCCCCN(C3=O)[C@@H](Cc3ccc(F)cc3)C(=O)N(C)CC(=O)N[C@@H](CCc3cc(F)c(C(F)(F)F)c(F)c3)C(=O)N2C1 [PP1157] | – | – | – | – | – | 30.3 | B (a compound having 3 or more and less than 10 is denoted as B) | 0.061 | B (a compound having 3 or more and less than 10 is denoted as B)
15 | CCCOC[C@H]1C(=O)N[C@@H]([C@@H](C)CC)C(=O)N(C)CC(=O)N(C)[C@H]2C/C=C\CCN(C2=O)[C@@H](CC2CCCCC2)C(=O)N(C)CC(=O)N[C@@H](CCc2cc(F)c(C(F)(F)F)c(F)c2)C(=O)N2C[C@H](OCC)C[C@H]2C(=O)NC2(CC(C)(C)C2)C(=O)N(C)[C@@H](C(CC)CC)C(=O)N(C)[C@H](C(=O)N(C)C)CC(=O)N1C [PP2501] | 180 | AA (a compound having 20 or more is denoted as AA) | – | A (a compound having 10 or more and less than 20 is denoted as A) | 1.8 | – | – | – | –
